Read-outs that look alike come from different tables or passages of the source.
Assays:
CYP3A4 = CYP3A4 (Homo sapiens, UniProt P08684); test: CYP3A4 inhibition, method not given; format: biochemical
D1 = D1 (Homo sapiens, UniProt P21728); test: biochemical
choline transporter = biological target: T1, choline transporter (Homo sapiens, UniProt Q9GZV3); test: biochemical
T1 sequence (Q9GZV3 1-580): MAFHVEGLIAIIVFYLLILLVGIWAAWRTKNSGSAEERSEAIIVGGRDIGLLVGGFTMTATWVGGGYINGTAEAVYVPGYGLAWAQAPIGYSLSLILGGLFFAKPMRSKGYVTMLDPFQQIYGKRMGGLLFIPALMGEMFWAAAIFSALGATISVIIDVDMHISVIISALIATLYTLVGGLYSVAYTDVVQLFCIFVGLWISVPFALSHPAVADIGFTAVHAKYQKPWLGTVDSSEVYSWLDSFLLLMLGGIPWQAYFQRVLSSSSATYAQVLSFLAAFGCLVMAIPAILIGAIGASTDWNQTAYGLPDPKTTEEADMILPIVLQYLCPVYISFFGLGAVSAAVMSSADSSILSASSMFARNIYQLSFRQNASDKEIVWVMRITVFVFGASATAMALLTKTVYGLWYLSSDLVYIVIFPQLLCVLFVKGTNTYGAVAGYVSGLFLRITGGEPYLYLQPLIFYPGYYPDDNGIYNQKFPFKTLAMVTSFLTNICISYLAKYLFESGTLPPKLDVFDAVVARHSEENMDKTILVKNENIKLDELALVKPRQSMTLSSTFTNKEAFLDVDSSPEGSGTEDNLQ

[1] = read-out: XEN601 % inhibition at 1 µM
[2] = read-out: XEN602 % inhibition at 1 µM

D1, sequence (P21728 whole entry): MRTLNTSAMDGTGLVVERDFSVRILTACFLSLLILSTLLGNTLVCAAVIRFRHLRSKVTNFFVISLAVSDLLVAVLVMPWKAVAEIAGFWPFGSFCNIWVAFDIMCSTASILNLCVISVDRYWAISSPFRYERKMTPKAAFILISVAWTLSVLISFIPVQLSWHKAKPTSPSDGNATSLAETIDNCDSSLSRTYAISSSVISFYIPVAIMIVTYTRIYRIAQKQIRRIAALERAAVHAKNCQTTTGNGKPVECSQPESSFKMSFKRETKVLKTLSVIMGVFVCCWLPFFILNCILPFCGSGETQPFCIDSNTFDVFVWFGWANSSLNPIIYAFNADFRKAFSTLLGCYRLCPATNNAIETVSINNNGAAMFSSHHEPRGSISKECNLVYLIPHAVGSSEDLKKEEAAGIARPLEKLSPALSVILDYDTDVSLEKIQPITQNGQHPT
CYP3A4, sequence (P08684 2-503): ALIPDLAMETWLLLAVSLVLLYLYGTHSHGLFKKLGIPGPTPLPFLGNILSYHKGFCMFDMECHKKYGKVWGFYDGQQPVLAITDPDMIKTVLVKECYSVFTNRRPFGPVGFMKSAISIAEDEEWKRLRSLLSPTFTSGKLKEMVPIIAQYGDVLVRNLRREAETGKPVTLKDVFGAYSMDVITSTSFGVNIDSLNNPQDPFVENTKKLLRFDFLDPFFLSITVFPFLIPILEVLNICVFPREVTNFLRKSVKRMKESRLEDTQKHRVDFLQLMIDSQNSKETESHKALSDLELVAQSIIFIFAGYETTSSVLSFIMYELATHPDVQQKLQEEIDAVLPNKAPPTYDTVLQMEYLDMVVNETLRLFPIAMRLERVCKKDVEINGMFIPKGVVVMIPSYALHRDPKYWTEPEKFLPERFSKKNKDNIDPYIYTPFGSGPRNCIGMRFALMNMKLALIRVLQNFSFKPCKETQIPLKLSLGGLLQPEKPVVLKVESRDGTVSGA

IC50 (CYP3A4) [µM] | inhibition at 1 µM (D1; [1]) [%] | inhibition at 1 µM (choline transporter; [1]) [%] | inhibition at 1 µM (D1; [2]) [%] | inhibition at 1 µM (choline transporter; [2]) [%] | Structure (SMILES)
< 1 | 69 | 62 | – | – | N=C(N)SCc1ccccc1Oc1ccc(-c2ccc(Oc3ccccc3CSC(=N)N)c(CSC(=N)N)c2)cc1CSC(=N)N [compound 5, XEN601]
– | – | – | 59 | 52 | N=C(N)SCc1cc(F)ccc1Oc1ccc(-c2ccc(Oc3ccc(CCCN4CCNCC4)cc3CSC(=N)N)c(CSC(=N)N)c2)cc1CSC(=N)N [compound 6, XEN602]
